The source made the active and inactive calls. No cut-off for these calls is given here.
Experiments:
[1] = Toxicity in mouse xenografted with human NCI-H460 cells with high-OXPHOS assessed as pathological changes in lung at 30 mg/kg, po bid administered for 18 days by H and E staining based analysis; format: organism-based; conditions: in vivo, 432 h, time 18 day
[2] = Clearance in ICR mouse at 1 mg/kg, iv measured for 24 hrs by LC-MS/MS analysis; format: ADME, organism-based; conditions: in vivo
A549 [3] = test: Potentiation of trametinib-induced cytotoxicity against human Trametinib-resistant A549 cells with high-OXPHOS harboring KRAS G12S mutant assessed as reduction in cell viability at 10 to 20 uM incubated for 72 hrs by CellTiter 96 cell proliferation assay; format: functional, cell-based; conditions: dose 10-20 µM
NCI-H358 [4] = test: Inhibition of mitochondrial respiration in human NCI-H358 cells with low-OXPHOS assessed as reduction in oxygen consumption rate at 50 to 200 nM incubated for 12 hrs by seahorse XF96 flux analyzer; format: functional, cell-based; conditions: dose 50-200 nM
[5] = Toxicity in mouse xenografted with human NCI-H460 cells with high-OXPHOS assessed as reduction in serum ALT level at 30 mg/kg, po bid administered for 18 days; format: organism-based; conditions: in vivo, 432 h, time 18 day
NCI-H441 [6] = test: Induction of apoptosis in human NCI-H441 cells with high-OXPHOS assessed as late apoptotic cells at 30 nM incubated for 48 hrs by Annexin V-FITC/propidium iodide staining based flow cytometry analysis (reference value: 9.27%); format: functional
A549 [7] = test: Antiproliferative activity against human Trametinib-resistant A549 cells with high-OXPHOS assessed as reduction in cell viability incubated for 5 days by CellTiter 96 cell proliferation assay; format: functional, cell-based; conditions: A549, 120 h
NCI-H460 [8] = test: Inhibition of mitochondrial complex IV in human NCI-H460 cells at 1 uM incubated for 12 hrs by seahorse XF96 metabolic flux analyzer relative to control; format: cell-based
NCI-H460 [9] = test: Inhibition of mitochondrial respiration in human NCI-H460 cells with high-OXPHOS assessed as reduction in basal oxygen consumption rate incubated for 12 hrs by seahorse XF96 flux analyzer; format: functional, cell-based; conditions: dose 50-200 nM
Cytochrome P450 3A4 = Cytochrome P450 3A4 (Homo sapiens, UniProt P08684); test: Inhibition of CYP3A4 in human liver microsomes using midazolam as substrate; format: ADME, Microsome
Cytochrome P450 3A4, sequence (P08684 whole entry): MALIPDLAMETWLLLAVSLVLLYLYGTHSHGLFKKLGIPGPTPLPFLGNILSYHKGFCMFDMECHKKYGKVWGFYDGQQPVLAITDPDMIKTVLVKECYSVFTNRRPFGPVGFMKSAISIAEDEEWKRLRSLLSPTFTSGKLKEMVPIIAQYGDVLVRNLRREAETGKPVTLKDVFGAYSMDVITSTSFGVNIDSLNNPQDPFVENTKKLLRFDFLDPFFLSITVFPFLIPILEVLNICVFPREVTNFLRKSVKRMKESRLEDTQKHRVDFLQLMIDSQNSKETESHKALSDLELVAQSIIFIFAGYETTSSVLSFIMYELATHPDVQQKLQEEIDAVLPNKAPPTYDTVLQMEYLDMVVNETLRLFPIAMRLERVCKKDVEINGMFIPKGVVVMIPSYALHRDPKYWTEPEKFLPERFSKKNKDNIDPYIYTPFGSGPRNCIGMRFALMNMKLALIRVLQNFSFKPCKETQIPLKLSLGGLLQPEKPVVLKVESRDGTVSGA

NCI-H460 [10] = test: Inhibition of colony formation in human NCI-H460 cells with high-OXPHOS incubated for 7 days by crystal violet staining based analysis; format: functional, cell-based; conditions: dose 250-1000 nM, time 7.0 day
[11] = MRT (0 to 24 hrs) in ICR mouse at 1 mg/kg, iv measured for 24 hrs by LC-MS/MS analysis; format: ADME, organism-based; conditions: in vivo
NCI-H460 [12] = test: Induction of apoptosis in human NCI-H460 cells with high-OXPHOS harboring KRAS Q61H mutant assessed as late apoptotic cells at 20 nM incubated for 72 hrs by Annexin V-FITC/propidium iodide staining based flow cytometry analysis (reference value: 5.68%); format: functional
NCI-H441 [13] = test: Inhibition of mitochondrial respiration in human NCI-H441 cells with high-OXPHOS assessed as reduction in maximal oxygen consumption rate incubated for 12 hrs by seahorse XF96 flux analyzer; format: functional, cell-based; conditions: dose 50-200 nM
Cytochrome P450 1A2 = biological target: T1, Cytochrome P450 1A2 (Homo sapiens, UniProt P05177); test: Inhibition of CYP1A2 in human liver microsomes; format: ADME, Microsome
T1 sequence (P05177 whole entry): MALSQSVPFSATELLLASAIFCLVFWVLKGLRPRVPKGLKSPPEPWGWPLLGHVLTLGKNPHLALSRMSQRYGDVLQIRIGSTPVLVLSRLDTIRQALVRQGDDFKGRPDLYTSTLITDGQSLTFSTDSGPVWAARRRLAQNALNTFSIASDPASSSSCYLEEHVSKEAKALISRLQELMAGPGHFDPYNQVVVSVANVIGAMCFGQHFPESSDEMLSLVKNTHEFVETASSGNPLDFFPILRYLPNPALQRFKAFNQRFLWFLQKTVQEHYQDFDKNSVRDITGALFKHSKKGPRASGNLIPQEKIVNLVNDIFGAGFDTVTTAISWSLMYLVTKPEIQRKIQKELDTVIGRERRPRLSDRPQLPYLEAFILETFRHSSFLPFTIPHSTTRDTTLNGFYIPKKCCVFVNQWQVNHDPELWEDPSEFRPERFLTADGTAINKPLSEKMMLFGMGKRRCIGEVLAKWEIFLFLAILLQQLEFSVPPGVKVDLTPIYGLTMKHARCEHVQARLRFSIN

NCI-H441 [14] = test: Inhibition of colony formation in human NCI-H441 cells with high-OXPHOS incubated for 7 days by crystal violet staining based analysis; format: functional, cell-based; conditions: dose 250-1000 nM, time 7.0 day
[15] = Toxicity in mouse xenografted with human NCI-H460 cells with high-OXPHOS assessed as reduction in serum AST level at 30 mg/kg, po bid administered for 18 days; format: organism-based; conditions: in vivo, 432 h, time 18 day
[16] = Toxicity in mouse xenografted with human NCI-H460 cells with high-OXPHOS assessed as pathological changes in spleen at 30 mg/kg, po bid administered for 18 days by H and E staining based analysis; format: organism-based; conditions: in vivo, 432 h, time 18 day
A549 [17] = test: Inhibition of mitochondrial respiration in human Trametinib-resistant A549 cell assessed as reduction in basal oxygen consumption rate at 50 to 200 nM incubated for 12 hrs by seahorse XF96 flux analyzer; format: functional, cell-based; conditions: dose 50-200 nM
[18] = Toxicity in mouse xenografted with human NCI-H460 cells with high-OXPHOS assessed as pathological changes in liver at 30 mg/kg, po bid administered for 18 days by H and E staining based analysis; format: organism-based; conditions: in vivo, 432 h, time 18 day
[19] = Tmax in ICR mouse at 10 mg/kg, po measured for 24 hrs by LC-MS/MS analysis; format: ADME, organism-based; conditions: in vivo
NCI-H460 [20] = test: Potentiation of trametinib-induced antitumor activity against human NCI-H460 cells with high-OXPHOS xenografted in mouse assessed as reduction in tumor volume at 30 mg/kg, po bid administered for 18 days and measured every 3 days by electronic caliper analysis; format: functional, organism-based; conditions: time 18.0 day
[21] = Cmax in ICR mouse at 1 mg/kg, iv measured for 24 hrs by LC-MS/MS analysis; format: ADME, organism-based; set-up: dose 1 mg/kg, time 24 hrs, route iv; conditions: in vivo
NCI-H441 [22] = test: Inhibition of colony formation in human NCI-H441 cells with high-OXPHOS harboring KRAS G12V mutant incubated for 10 to 14 days in presence of trametinib by crystal violet staining based analysis; format: functional, cell-based; conditions: time 10-14 day
NCI-H460 [23] = test: Inhibition of mitochondrial respiration in human NCI-H460 cells with high-OXPHOS assessed as reduction in spare oxygen consumption rate capacity incubated for 12 hrs by seahorse XF96 flux analyzer; format: functional, cell-based; conditions: dose 50-200 nM
NCI-H460 [24] = test: Inhibition of mitochondrial complex III in human NCI-H460 cells at 1 uM incubated for 12 hrs by seahorse XF96 metabolic flux analyzer relative to control; format: cell-based
A549 [25] = test: Inhibition of colony formation in human Trametinib-resistant A549 cells with high-OXPHOS harboring KRAS G12S mutant incubated for 10 to 14 days in presence of trametinib by crystal violet staining based analysis; format: functional, cell-based; conditions: time 10-14 day
NCI-H358 [26] = test: Antiproliferative activity against human NCI-H358 cells with low-OXPHOS assessed as reduction in cell viability incubated for 5 days by CellTiter 96 cell proliferation assay; format: functional, cell-based; conditions: NCI-H358, 120 h
[27] = Toxicity in mouse xenografted with human NCI-H460 cells with high-OXPHOS assessed as pathological changes in kidney at 30 mg/kg, po bid administered for 18 days by H and E staining based analysis; format: organism-based; conditions: in vivo, 432 h, time 18 day

Cc1c(C(=O)N2CCN(Cc3ccc(OCC(F)(F)F)cc3)CC2)nnn1Cc1ccc(C(=O)Nc2ccc(C(F)(F)F)cc2)nc1
Activity [1]: Non-Toxic
clearance [2]: 46.6 mL/min/kg
Activity (A549 [3]): Active
inhibition (NCI-H358 [4]): inactive
Activity [5]: Non-Toxic
Activity (NCI-H441 [6]): 30.9%
IC50 (A549 [7]): 15.1 nM
inhibition (NCI-H460 [8]): 10.4%
inhibition (NCI-H460 [9]): Dose-Dependent Effect
IC50 (Cytochrome P450 3A4): > 50000 nM
inhibition (NCI-H460 [10]): Dose-Dependent Effect
MRT last at 24 h [11]: 1.5 h
Activity (NCI-H460 [12]): 16.2%
inhibition (NCI-H441 [13]): Dose-Dependent Effect
IC50 (Cytochrome P450 1A2): > 50000 nM
inhibition (NCI-H441 [14]): Dose-Dependent Effect
Activity [15]: Non-Toxic
Activity [16]: Non-Toxic
inhibition (A549 [17]): Active
Activity [18]: Non-Toxic
Tmax [19]: 1 h
Activity (NCI-H460 [20]): Active
Cmax [21]: 425 ng/mL
inhibition (NCI-H441 [22]): Active
inhibition (NCI-H460 [23]): Dose-Dependent Effect
inhibition (NCI-H460 [24]): 28.1%
inhibition (A549 [25]): Active
IC50 (NCI-H358 [26]): > 1000 nM
Activity [27]: Non-Toxic

From ChEMBL document CHEMBL5380875, “Discovery of a Potent and Oral Available Complex I OXPHOS Inhibitor That Abrogates Tumor Growth and Circumvents MEKi Resistance” (J Med Chem, 2023)
